Read-outs that look alike come from different tables or passages of the source.
What was measured:
[1] = test system: Key Broadleaf Weed and Crop Species; assay: Post-Emergent Test II (Table 5); assay type: in vivo; conditions: post-emergence, 336 h; for pest or weed control at 70 g/ha: application rate 70 (kg ai/ha; footnote: g ai/ha); for pest or weed control at 140 g/ha: application rate 140 (kg ai/ha; footnote: g ai/ha)
Outline: (§1)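 Plants at first or second true-leaf stage, grown 7-21 days in greenhouse, were sprayed post-emergence at 187 L/ha with compounds in acetone/DMSO/water/crop oil/surfactant mixture at the high rate and ½× to 1/16× dilutions. Injury scored visually after 14 days, 0 (none) to 100% (complete kill), versus untreated plants.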

[2] = test system: Key Grass and Sedge Weeds as well as Grass Crops; assay: Post-Emergent Test II (Table 6); assay type: in vivo; conditions: post-emergence, 336 h, 14 days after application; for pest or weed control at 70 g/ha: 70 g ai/ha; for pest or weed control at 140 g/ha: 140 g ai/ha
Outline: as §1

[3] = Abutilon theophrasti, ABUTH: velvetleaf (Abutilon theophrasti), read-out: Visual Growth Reduction (%) 14 Days After Application ABUTH
[4] = Amaranthus retroflexus, AMARE: redroot pigweed (Amaranthus retroflexus), read-out: Visual Growth Reduction (%) 14 Days After Application AMARE
[5] = Brassica napus, BRSSS: oilseed rape, canola (Brassica napus), read-out: Visual Growth Reduction (%) 14 Days After Application BRSSS
[6] = Chenopodium album, CHEAL: lambsquarters (Chenopodium album), read-out: Visual Growth Reduction (%) 14 Days After Application CHEAL
[7] = Euphorbia heterophylla, EPHHL: wild poinsettia (Euphorbia heterophylla), read-out: Visual Growth Reduction (%) 14 Days After Application EPHHL
[8] = Helianthus annuus, HELAN: sunflower (Helianthus annuus), read-out: Visual Growth Reduction (%) 14 Days After Application HELAN
[9] = Viola tricolor, VIOTR: wild pansy (Viola tricolor), read-out: Visual Growth Reduction (%) 14 Days After Application VIOTR
[10] = CYPSS, read-out: Visual Growth Reduction (%) 14 Days After Application CYPSS
[11] = DIGSA: crabgrass (Digitaria sanguinalis), read-out: Visual Growth Reduction (%) 14 Days After Application DIGSA
[12] = ORYSS (crop), read-out: Visual Growth Reduction (%) 14 Days After Application ORYSS
[13] = SETFA: giant foxtail (Setaria faberi), read-out: Visual Growth Reduction (%) 14 Days After Application SETFA
[14] = SORVU: grain sorghum (Sorghum vulgare), read-out: Visual Growth Reduction (%) 14 Days After Application SORVU
[15] = TRZSS (crop), read-out: Visual Growth Reduction (%) 14 Days After Application TRZSS
[16] = ZEAMX: maize, corn (Zea mays), read-out: Visual Growth Reduction (%) 14 Days After Application ZEAMX

SMILES | pest or weed control at 70 g/ha [1, 3] [%] | pest or weed control at 140 g/ha [1, 3] [%] | pest or weed control at 70 g/ha [1, 4] [%] | pest or weed control at 140 g/ha [1, 4] [%] | pest or weed control at 70 g/ha [1, 5] [%] | pest or weed control at 140 g/ha [1, 5] [%] | pest or weed control at 70 g/ha [1, 6] [%] | pest or weed control at 140 g/ha [1, 6] [%] | pest or weed control at 70 g/ha [1, 7] [%] | pest or weed control at 140 g/ha [1, 7] [%] | pest or weed control at 70 g/ha [1, 8] [%] | pest or weed control at 140 g/ha [1, 8] [%] | pest or weed control at 70 g/ha [1, 9] [%] | pest or weed control at 140 g/ha [1, 9] [%] | pest or weed control at 70 g/ha [2, 10] [%] | pest or weed control at 140 g/ha [2, 10] [%] | pest or weed control at 70 g/ha [2, 11] [%] | pest or weed control at 140 g/ha [2, 11] [%] | pest or weed control at 70 g/ha [2, 12] [%] | pest or weed control at 140 g/ha [2, 12] [%] | also measured
COC(=O)c1nc(-c2ccc(Cl)c(F)c2Cl)cc(N)c1Cl [Compound 72] | 95 to 100 | 95 to 100 | 95 to 100 | 95 to 100 | 85 to 94 | 95 to 100 | 95 to 100 | 95 to 100 | 85 to 94 | 85 to 94 | 75 to 84 | 85 to 94 | 95 to 100 | 95 to 100 | 95 to 100 | 95 to 100 | 75 to 84 | 75 to 84 | 0 to 29 | 0 to 29 | pest or weed control at 70 g/ha [2, 13]: 75 to 84%; pest or weed control at 140 g/ha [2, 13]: 75 to 84%; pest or weed control at 70 g/ha [2, 14]: 60 to 74%; pest or weed control at 140 g/ha [2, 14]: 95 to 100%; pest or weed control at 70 g/ha [2, 15]: 45 to 59%; pest or weed control at 140 g/ha [2, 15]: 45 to 59%; pest or weed control at 70 g/ha [2, 16]: 60 to 74%; pest or weed control at 140 g/ha [2, 16]: 75 to 84%; melting point: 183 to 189 °C
COC(=O)c1nc(-c2ccc(Cl)c(F)c2C)c(Cl)c(N)c1Cl [Compound 3] | 60 to 74 | 60 to 74 | 95 to 100 | 95 to 100 | 0 to 29 | 0 to 29 | 60 to 74 | 75 to 84 | 0 to 29 | 0 to 29 | 75 to 84 | 75 to 84 | 0 to 29 | 0 to 29 | 0 to 29 | 0 to 29 | 0 to 29 | 0 to 29 | 0 to 29 | 0 to 29 | pest or weed control at 70 g/ha [2, 13]: 0 to 29%; pest or weed control at 140 g/ha [2, 13]: 0 to 29%; pest or weed control at 70 g/ha [2, 14]: 0 to 29%; pest or weed control at 140 g/ha [2, 14]: 0 to 29%; pest or weed control at 70 g/ha [2, 15]: 0 to 29%; pest or weed control at 140 g/ha [2, 15]: 0 to 29%; pest or weed control at 70 g/ha [2, 16]: 0 to 29%; pest or weed control at 140 g/ha [2, 16]: 0 to 29%; melting point: 122 to 136 °C
